Experimental data as given in patent US11377499B2, “Targeting the cofilin pathway” (priority 2017, dated 2022).

Key:
[1] = system: cofilin phosphorylation in resting memory and IL-7-cultured naïve CD4 T cells (α4β7 integrin); assay: Intracellular p-cofilin staining and flow cytometry after Act-1 stimulation; format: cell-based, human; conditions: memory T cells treated with PTX 2 hours, then Act-1 1 μg/ml; 30 min
Description: In the human peripheral blood, high levels of α4β7 were detected on a subpopulation of resting memory CD4 T cells (36).
(§1) One million cells were fixed, permeabilized with methanol, washed, and then stained with an anti-human p-cofilin antibody using a commercial intracellular staining kit (Virongy, Manassas, Va.) for 60 min at room temperature. Cells were washed twice and stained with Alexa Fluor 488-labeled chicken anti-rabbit antibodies (Invitrogen, Carlsbad, Calif.). Cells were washed twice, and then analyzed on a FACSCalibur (BD Biosciences, San Jose, Calif.).

[2] = system: cofilin phosphorylation in resting memory CD4 T cells; assay: Intracellular p-cofilin staining and flow cytometry after HIV-1(AD8) or gp120(BAL) stimulation; format: cell-based, human
Excerpt: In addition to CXCR4, CCR5 is used by R5-tropic viruses that predominate early in the infection; R5 HIV infects and depletes gut memory CD4 T cells, leading to chronic immune activation (20, 21). Whether HIV-mediated CCR5 signaling can also lead to cofilin activation in memory T cells was investigated. In contrast to X4 viruses, which infect both memory and naïve CD4 T cells, R5 viruses infect a subpopulation of memory CD4 T cells (FIG. 1A). CCR5 is present on only around 30% of resting memory CD4 T cells (FIG. 1B). Given this low percentage, a flow cytometry-based intracellular phospho-cofilin staining method was used to quantify cofilin in individual cells. […]
A3R5.7 cell is acquired from the NIH AIDS Reagent Program. […] Viral titer (TCID50) was determined on the Rev-dependent GFP indicator cell (61), Rev-A3R5-GFP (Virongy, Manassas, Va.). […] T cells were stained with anti-CD45RO-Pacific Blue monoclonal antibody (BD Pharmingen) and analyzed by Flow Cytometry for CD45RO and GFP expression. […]
as §1, with “Cells were washed twice and stained with Alexa Fluor 488-labeled chicken anti-rabbit antibodies (Invitrogen, Carlsbad, Calif.).” left out

[3] = system: cofilin phosphorylation in A3R5.7 T cells or blood resting CD4 T cells; assay: Western blot for p-cofilin and cofilin after R10015 treatment; format: cell-based, human
Excerpt: Cofilin hyperactivation may be associated with a migratory impairment of CCR6+ and CXCR3+ helper T cells (Th), which are prevented from trafficking from the blood stream to peripheral organs even in aviremic HIV patients on long-term ART (5). T cell migration and homing is controlled by chemotactic signaling which activates cycles of cofilin phosphorylation and dephosphorylation to drive actin dynamics for cell motility. Phosphorylation of cofilin is regulated by LIM-domain kinase (LIMK), which inactivates cofilin through serine 3 phosphorylation (28). To quantify the effect of cofilin hyperactivation on T cell migration, a recently discovered LIMK inhibitor, R10015 (29) was used, to mimic cofilin activation in HIV infection. A human CD4 T cell line, A3R5.7, or blood resting CD4 T cells were treated with different dosages of R10015 during chemotaxis (FIG. 3). […] At around 15 to 20 μM of R10015, cofilin phosphorylation was reduced to around 50%, approximately the level seen in HIV patients (FIGS. 3A and 3B).
One million cells were lysed in NuPAGE LDS Sample Buffer (Invitrogen, Carlsbad, Calif.) followed by sonication. Samples were heated at 70° C. for 10 minutes, separated by SDS-PAGE, and then transferred onto nitrocellulose membranes (Invitrogen, Carlsbad, Calif.). The membranes were washed in TBST for 3 minutes and then blocked for 30 minutes at room temperature with 5% milk. […]

[4] = system: A3R5.7 T cells or blood resting CD4 T cells; assay: Chemotaxis trans-well assay in response to SDF-1; format: cell-based, human
Description: (§2) Cells were stained with PE-labeled Rat anti-human CCR5 antibody (Biolegend, San Diego, Calif.) or with a mouse anti-human α4β7 integrin antibody (Act-1) (obtained from NIH AIDS Reagent Program) followed by secondary antibody staining with Alexa Fluor 647-labelled goat anti-mouse antibodies (Invitrogen, Carlsbad, Calif.). Cells were stained on ice in PBS+0.1% BSA for 30 minutes, washed with cold PBS-0.5% BSA, and then analyzed on a FACSCalibur (BD Biosciences, San Jose, Calif.).
A half million cells were resuspended into 100 μl RPMI-1640 medium and then added to the upper chamber of a 24-well trans-well plate (Corning, Corning, N.Y.). The lower chamber was filled with 600 μl of medium premixed with SDF-1 (40 ng/ml). The plate was incubated at 37° C. for 2 hours, and then the upper chamber was removed and cells in the lower chamber were counted. Where indicated, different concentrations of R10015 (29) or DMSO were added to cell culture, incubated for 1 hour at 37° C. before adding cells to the upper chamber. Cells were also treated with the anti-human α4β7 integrin antibody (Act-1) or the control mouse IgG1 antibody for 15 minutes before adding cells to the upper chamber. Act-1 (1 μg/ml) was also added to the lower chamber with SDF-1 (40 ng/ml).

LIMK = conditions: previously identified (30); cited from earlier work
[5] = prevents therapeutic use; cited from earlier work
[6] = system: α4β7 on naïve CD4 T cells; assay: Surface staining of α4β7 and flow cytometry; format: cell-based, human; conditions: naïve T cells cultured in IL-7 (5 ng/ml) for 3 days; FIG. 5
Excerpt: All protocols involving human subjects were reviewed and approved by the George Mason University institutional review board. Peripheral blood mononuclear cells (PBMC) were purified from peripheral blood of HIV-negative donors by centrifugation in Lymphocyte Separation Medium (Corning, Corning, N.Y.), and resting CD4 T cells were further purified by two rounds of negative selection as previously described (13, 54). Briefly, for the first-round depletion, monoclonal antibodies against human CD14, CD56 and HLA-DR, DP, and DQ (BD Biosciences, San Jose, Calif.) were used. For the second-round depletion, monoclonal antibodies against human CD8, CD11b, and CD19 (BD Biosciences, San Jose, Calif.) were used. Antibody-bound cells were depleted using Dynabeads Pan Mouse IgG (Invitrogen, Carlsbad, Calif.). […]
as §2

Q: Which results are given for pertussis toxin?
A: Act-1-mediated cofilin activation after PTX [1]: late inhibition of cofilin activation; cofilin activation (dephosphorylation) following exposure to R5-HIV ([2]; resting memory CD4 T cells, pertussis toxin 100 ng/ml for 1 hour, then HIV(AD8), FIG. 1C): largely abrogated late cofilin activation

Q: Which “cofilin phosphorylation reduced to” value ([3]; around 15 to 20 μM R10015, one hour, A3R5.7 or blood resting CD4 T cells) does the source give for `COC(=O)c1ccc2nc(C3CCN(c4ncnc5[nH]cc(Cl)c45)CC3)[nH]c2c1` [R10015] here?
A: around 50%

Q: What about the dephosphorylation of cofilin ([3]; different dosages of R10015, one hour, FIGS. 3A and 3B) of the same molecule?
A: dosage-dependent dephosphorylation of cofilin

Q: What about the “decrease in migrating T cells” value ([4]; 15 μM or 20 μM R10015 (50% reduction in cofilin phosphorylation), A3R5.7 and blood T cells, SDF-1 40 ng/ml) of the same molecule?
A: 20-40%

Q: And the “percentage of migrating α4β7^high T cells” value ([4]; R10015 alone, control 8.90%, FIG. 4F)?
A: 4.52%

Q: And the “percentage of the CCR7^+ T cell subpopulation among migrating cells” value ([4]; R10015 and Act-1, FIG. 8)?
A: not altered

Q: And the “impairment of T cell chemotaxis” value ([4]; different dosages of R10015, SDF-1 40 ng/ml, FIGS. 3C and 3D)?
A: dosage-dependent impairment of T cell chemotaxis

Q: For `C=C1[C@@H](O)[C@@H]2O[C@]3(CC[C@H](/C=C/[C@@H](C)[C@@H]4CC(C)=C[C@@]5(O[C@H](C[C@@](C)(O)C(=O)O)CC[C@H]5O)O4)O3)CC[C@H]2O[C@@H]1[C@@H](O)C[C@H](C)[C@H]1O[C@@]2(CCCCO2)CC[C@H]1C` [okadaic acid], which “LIMK activation, cofilin phosphorylation and actin polymerization” value (LIMK) is on record?
A: activate LIMK and enhance cofilin phosphorylation and actin polymerization

Q: And the toxicity [5]?
A: high toxicity

Q: With `Cc1nnc(C(C)C)n1C1C[C@H]2CC[C@@H](C1)N2CC[C@H](NC(=O)C1CCC(F)(F)CC1)c1ccccc1` (stereo in doubt) [maravoric] as the molecule, how does the “cofilin activation by gp120(BAL) after pretreatment with CCR5 blocker” value ([2]; maravoric 1 μM for 1 hour, then gp120(BAL) 100 nM, FIG. 1D) read?
A: largely abrogated

B1: IL-7: cytokine used to culture naïve T cells for α4β7 surface receptor upregulation (protein, UniProt P13232 26-177, looked up)
Interleukin-7: DCDIEGKDGKQYESVLMVSIDQLLDSMKEIGSNCLNNEFNFFKRHICDANKEGMFLFRAARKLRQFLKMNSTGDFDLHLLKVSEGTTILLNCTGQVKGRKPAALGEAQPTKSLEENKSLKEQKKLNDLCFLKRLLQEIKTCWNKILMGTKEH
Q: Which α4β7 surface expression [6] does the source give for B1 here?
A: greatly upregulate α4β7 on the cell surface
